Source: US11584916B2, “Method of making in vivo human small intestine organoids from pluripotent stem cells” (Children's Hospital Medical Center, priority 2014, dated 2023)
“Also recorded” adds a separate entry of the source.

Legend:
[1] = molecular target: T1, peptide transporter (PEPT1) (Homo sapiens, UniProt P46059); settings: in vivo
T1 sequence (P46059 1-708): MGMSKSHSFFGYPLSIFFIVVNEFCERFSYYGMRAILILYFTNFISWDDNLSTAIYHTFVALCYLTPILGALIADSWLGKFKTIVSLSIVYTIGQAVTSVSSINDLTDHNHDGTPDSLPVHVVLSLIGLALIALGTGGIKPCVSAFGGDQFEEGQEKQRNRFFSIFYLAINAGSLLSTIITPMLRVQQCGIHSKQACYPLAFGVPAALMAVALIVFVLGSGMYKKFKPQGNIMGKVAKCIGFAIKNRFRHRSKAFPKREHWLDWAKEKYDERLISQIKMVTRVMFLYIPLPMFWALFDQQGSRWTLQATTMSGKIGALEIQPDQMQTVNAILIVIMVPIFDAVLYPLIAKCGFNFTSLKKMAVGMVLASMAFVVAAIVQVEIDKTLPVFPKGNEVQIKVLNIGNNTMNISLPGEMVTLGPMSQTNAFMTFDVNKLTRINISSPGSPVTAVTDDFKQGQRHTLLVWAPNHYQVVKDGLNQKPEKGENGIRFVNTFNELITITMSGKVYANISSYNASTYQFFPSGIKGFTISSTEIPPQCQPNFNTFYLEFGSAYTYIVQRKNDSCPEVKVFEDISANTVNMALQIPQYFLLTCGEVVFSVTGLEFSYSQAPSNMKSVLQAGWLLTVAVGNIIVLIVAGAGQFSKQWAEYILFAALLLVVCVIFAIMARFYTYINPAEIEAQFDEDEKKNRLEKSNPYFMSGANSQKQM

[2] = test system: ENS neurons in HIOs+NCCs; assay: Live imaging of Ca2+ flux (GCaMP6f) in HIOs+NCCs in vitro; type: cell-based, human; settings: 30 mM; HIOs+GCaMP6 expressing NCCs
Description: The accessibility of in vitro grown HIOs allowed us to test the functionality of neurons using live imaging with the Ca2+ sensor GCaMP6f19. To do this, Applicant generated HIOs and incorporated into them NCCs that were derived from a PSC line containing GCaMP6 (FIG. 17A). Imaging of neural activity in HIOs grown for 8 weeks in vitro detected broad, spontaneous, and rapid calcium transients within neurons. When individual neurons were monitored there was an obvious periodicity of calcium efflux in the range of 3-4 seconds/neuron (FIGS. 17B and 17C).

[3] = test system: HIO+NCC tissues; assay: Ex-vivo intestinal motility, organ bath, muscle strips of engrafted HIO+NCC; type: cell-based, human
[4] = test system: HIO+NCC tissue; type: cell-based, human
[5] = test system: vagal-level Hox genes HOXB3, HOXB5, and HOXB7; assay: Posteriorization of human PSC-derived neurospheres/NCCs, Hox gene expression by qRT-PCR; type: cell-based; settings: two days (48 hours) at the neurosphere stage; RA 2 μM
Description: Cells were fed mTeSR1 media and routinely passaged using Dispase II (Gibco). NCCs and HIOs were generated and combined at an early stage of intestinal differentiation to generate HIOs containing ENS. Briefly, for NCC generation (FIG. 1), hPSCs were treated with collagenase IV (500 U/mL) in mTeSR1 for 60 min to detach colonies. Cells were washed to remove collagenase, then gently triturated and resuspended in neural induction media on non-TC treated petri dishes. Neural induction media was changed daily and retinoic acid (2 μM) was added on days 4 and 5 for posteriorization. Day 6 free-floating neurospheres were plated on fibronectin (3 μg/cm2) and fed neural induction media without RA for 4 days. Migrated cells were collected using a brief Accutase treatment (2-3 min) and passaged onto fibronectin or used immediately for combining with HIOs. NCCs were differentiated essentially as described for neuroglial 9 and mesenchymal lineages 36. […] Following the formation of gut tube spheroids, Applicant gently centrifuged spheroids +/−NCCs and embedded them in Matrigel. […]
Total RNA from cells and organoids was isolated using NucleoSpin RNA isolation Kit (Macherey-Nagel). […] Applicant performed qPCR using QuantiTect SYBR Green PCR Kit (Qiagen) on a BioRad CFX96 Real-Time PCR Detection System. […]

[6] = test system: vagal-level Hox genes HoxB3 and HoxB7; assay: Chick cranial NCC culture, Hox gene expression; type: cell-based; settings: 2 μM RA or 4 ng/mL FGF4 for 48 hours
Description: Chicken eggs were purchased from Charles River and incubated at 39° C. until they reached the desired Hamburger and Hamilton stage. For chicken NCC culture, dorsal neural tubes from cranial or trunk region of HH8 embryos were dissected by Gastromaster and cultured on matrigel-coated tissue culture dish with NCC culture medium (BajPai R et al, 2010) for 24 hours. The neural ectoderm was scrapped off the plate by tungsten needle after NCCs migrated out from the neural tube explants. The NCCs remained on the plate were then treated with 4 ng/mL FGF4 or 2 μM Retinoic acid for 48 hours. For NCCs injection, GFP-labeled human PSC-derived NCCs were collected and injected intersomitically into HH10-12 chicken embryos. The embryos were harvested around HH38 for analysis.

[7] = test system: human pluripotent stem cells; assay: Directed differentiation of human pluripotent stem cells into definitive endoderm; type: cell-based; settings: 100 ng ml-1 Activin A for 3 d
Description: Human intestinal organoids were generated and maintained as previously described (Spence et al, Nature 2011 and McCracken et al. Nat. Protoc. 2011). Human embryonic stem cells and induced pluripotent stem cells were grown in feeder-free conditions in six-well Nunclon surface plates (Nunc) coated with Matrigel (BD Biosciences) and maintained in mTESR1 media (Stem Cell Technologies). For induction of definitive endoderm (DE), human ES or iPS cells were passaged with Dispase or Accutase (Invitrogen) and plated at a density of 100,000 cells per well in a Matrigel-coated, Nunclon surface 24-well plate. For Accutase split cells, 10 μM Y27632 compound (Sigma) was added to the media for the first day. Cells were allowed to grow until they reached 80-95% confluence. Cells were then treated with 100 ng ml-1 of Activin A for 3 d as previously described (D'Amour et al. Nat. Biotechnol. 2005). DE was then treated with hindgut induction medium (RPMI 1640, 2 mM L-glutamine, 2% decomplemented FBS, penicillin-streptomycin and 100 ng ml-1 Activin A) for 4 d with 500 ng mL-1 FGF4 (R&D) and 3 μM Chiron 99021 (Tocris) to induce formation of mid-hindgut spheroids. […]

C[C@H](CS)C(=O)N1CCC[C@H]1C(=O)O [Captopril]
fluorescence within the epithelium after injection of labeled peptide + competitive inhibitor [1]: little to no fluorescence was observed

[Cl-].[K+] [KC1]
neuronal calcium response [2]: large wave of neuronal calcium efflux

COC(=O)[C@@H](N)CCCNC(=N)N[N+](=O)[O-] [L-NAME, NG-nitro-L-arginine methyl ester]
effect on relaxation after DMPP stimulation ([3]; L-NAME applied 5 min before DMPP (10 μM) stimulation): significantly decreased the relaxation

CN(C)c1ccc2nc3ccc(=[N+](C)C)cc-3sc2c1 [Methylene Blue]
effect on spontaneous phasic contractions (ICC activity) ([3]; Methylene Blue 50 μM, no neuronal stimulation): abolished phasic contractions; also recorded: loss of contractile activity

NC1=N[C@H](O)[C@H]2[C@H]3O[C@]4(O)O[C@@H]([C@@H](O)[C@@]2(N1)[C@@H]4O)[C@]3(O)CO [TTX, tetrodotoxin]
effect on contractions/motility triggered by low voltage EFS [4]: completely inhibited and lost
effect on muscle relaxation in response to DMPP and or veratridine [3]: inhibited the ability of the neurons to induce muscle relaxation

B1: FGF4: growth factor tested as a different posterizing factor (protein, UniProt P08620 31-206, looked up)
Fibroblast growth factor 4: APTAPNGTLEAELERRWESLVALSLARLPVAAQPKEAAVQSGAGDYLLGIKRLRRLYCNVGIGFHLQALPDGRIGGAHADTRDSLLELSPVERGVVSIFGVASRFFVAMSSKGKLYGSPFFTDECTFKEILLPNNYNAYESYKYPGMFIALSKNGKTKKGNRVSPTMKVTHFLPRL
expression of vagal-level Hox genes in human PSC-derived NCCs [5]: little effect
Hox gene expression in chick cranial NCCs [6]: had no effect

B2: Activin A: growth factor used to induce definitive endoderm (protein, UniProt P08476 311-426, looked up)
Inhibin beta A chain: GLECDGKVNICCKKQFFVSFKDIGWNDWIIAPSGYHANYCEGECPSHIAGTSGSSLSFHSTVINHYRMRGHSPFANLKSCCVPTKLRPMSMLYYDDGQNIIKKDIQNMIVEECGCS
modifications: Inhibin beta A chain
notes: growth factor used to induce definitive endoderm
differentiation into definitive endoderm (FOXA2 and SOX17) [7]: efficient differentiation into definitive endoderm
